From patent publication US20160177395A1, “BIOMARKERS FOR THE PREDICTION OF RENAL INJURY” (priority 2007, published 2016)
“And” between values parts separate entries of the source, which are not always exact repeats. Equal entries are not always repeated.

Experiments:
[1] = tested on: Sprague-Dawley Crl:CD(SD) rats; details: rat, in vivo;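 further: control rats received saline intraperitoneally, and the organs examined were adrenals, brain, kidneys, liver, spleen and thymus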
[2] = tested on: kidney tissues of treated or untreated rats; assay: Real-time qRT-PCR of signature amplicons, validation stage, labeled and un-labeled samples (Table 23); details: for AI045075_DB71_seg6 normalized qRT-PCR expression (Interferon stimulated exonuclease 20 (ISG20) transcript) / H31883_DB71_seg13 normalized qRT-PCR expression (Cyclin-G1 (CCNG1) transcript) / MUSCYCG1R_DB81_seg19-20 normalized qRT-PCR expression / W41270_DB81_seg11 normalized qRT-PCR expression (tumor necrosis factor receptor superfamily, member 12a transcript) / W64472_DB81_seg2 normalized qRT-PCR expression (Interferon stimulated exonuclease 20 (ISG20) transcript) / W83813_DB81_seg27 normalized qRT-PCR expression: labeled samples, listed as ValpA
Outline: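 Each of four signature genes measured as wild-type and alternative-splice amplicons by qRT-PCR in treated or untreated rat kidney. Normalization was two-step: housekeeping-gene factor, then inter-plate correction from shared samples on a shuffled control plate; final values rescaled for display.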

[3] = day1, kidney of individual male/female rats
[4] = day5, kidney of individual male/female rats
[5] = day28, kidney of individual male/female rats

SMILES: CCCC(CCC)C(=O)O [Valproic acid]
- Clinical pathology [1]: Slightly lower total protein and Albumin values were found in males
- Histopathology / renal damage [1]: No renal damage was found
- Water consumption [1]: Increase in Valproic acid treated females
- Water consumption, males [1]: Sight decrease during the last week
- AI045075_DB71_seg6 normalized qRT-PCR expression (Interferon stimulated exonuclease 20 (ISG20) transcript) [2, 3]: 1.006 and 1.436 and 2.189 and 0.983 and 1.098 and 1.522
- H31883_DB71_seg13 normalized qRT-PCR expression (Cyclin-G1 (CCNG1) transcript) [2, 3]: 1.488 and 1.506 and 0.999 and 0.721 and 1.041
- MUSCYCG1R_DB81_seg19-20 normalized qRT-PCR expression [2, 3]: 2.289 and 1.581 and 1.842 and 1.929 and 0.637 and 0.9
- W41270_DB81_seg11 normalized qRT-PCR expression (tumor necrosis factor receptor superfamily, member 12a transcript) [2, 3]: 1.134 and 0.939 and 1.405 and 1.225 and 0.547 and 1.544
- W64472_DB81_seg2 normalized qRT-PCR expression (Interferon stimulated exonuclease 20 (ISG20) transcript) [2, 3]: 1.082 and 1.123 and 1.887 and 0.995 and 1.092 and 1.596
- W83813_DB81_seg27 normalized qRT-PCR expression [2, 3]: 1.179 and 0.912 and 1.495 and 1.13 and 0.818 and 1.366
- AI045075_DB71_seg6 normalized qRT-PCR expression (Interferon stimulated exonuclease 20 (ISG20) transcript) [2, 4]: 1.017 and 1.145 and 0.997 and 0.883 and 1.052 and 0.877
- H31883_DB71_seg13 normalized qRT-PCR expression (Cyclin-G1 (CCNG1) transcript) [2, 4]: 0.846 and 0.85 and 0.975 and 0.791 and 0.694 and 1.082
- MUSCYCG1R_DB81_seg19-20 normalized qRT-PCR expression [2, 4]: 1.019 and 1.509 and 1.372 and 0.94 and 1.425 and 1.585
- W41270_DB81_seg11 normalized qRT-PCR expression (tumor necrosis factor receptor superfamily, member 12a transcript) [2, 4]: 0.631 and 1.428 and 1.002 and 0.617 and 0.997
- W64472_DB81_seg2 normalized qRT-PCR expression (Interferon stimulated exonuclease 20 (ISG20) transcript) [2, 4]: 0.92 and 1.226 and 1.169 and 0.702 and 0.812 and 0.894
- W83813_DB81_seg27 normalized qRT-PCR expression [2, 4]: 0.778 and 1.17 and 0.876 and 0.926 and 1.146 and 0.992
- AI045075_DB71_seg6 normalized qRT-PCR expression (Interferon stimulated exonuclease 20 (ISG20) transcript) [2, 5]: 0.696 and 0.906 and 0.669 and 0.822 and 0.77 and 0.719
- H31883_DB71_seg13 normalized qRT-PCR expression (Cyclin-G1 (CCNG1) transcript) [2, 5]: 0.732 and 0.774 and 0.713 and 0.872 and 0.57 and 0.979
- MUSCYCG1R_DB81_seg19-20 normalized qRT-PCR expression [2, 5]: 0.588 and 1.731 and 0.589 and 1.171 and 1.037 and 0.52
- W41270_DB81_seg11 normalized qRT-PCR expression (tumor necrosis factor receptor superfamily, member 12a transcript) [2, 5]: 0.543 and 0.95 and 0.459 and 1.044 and 0.587 and 1.011
- W64472_DB81_seg2 normalized qRT-PCR expression (Interferon stimulated exonuclease 20 (ISG20) transcript) [2, 5]: 1.085 and 0.788 and 0.965 and 1.51 and 0.478 and 0.991
- W83813_DB81_seg27 normalized qRT-PCR expression [2, 5]: 0.493 and 1.254 and 0.46 and 0.875 and 0.761 and 1.208
- Label: true label (Normal/Toxic), known renal toxic effect ([2]; rat, in vivo): Normal
